In US9469615B2, “Quinoxalines and AZA-quinoxalines as CRTH2 receptor modulators” (Merck Sharp & Dohme Corp., priority 2010, dated 2016):

Biological target: T1, hCRTH2 (Homo sapiens, UniProt Q9Y5Y4)
T1 construct: expressed in transfected cells; host or cells: HEK (human embryonic kidney) cells expressing hCRTH2; membrane preparation
T1 sequence (Q9Y5Y4 1-395): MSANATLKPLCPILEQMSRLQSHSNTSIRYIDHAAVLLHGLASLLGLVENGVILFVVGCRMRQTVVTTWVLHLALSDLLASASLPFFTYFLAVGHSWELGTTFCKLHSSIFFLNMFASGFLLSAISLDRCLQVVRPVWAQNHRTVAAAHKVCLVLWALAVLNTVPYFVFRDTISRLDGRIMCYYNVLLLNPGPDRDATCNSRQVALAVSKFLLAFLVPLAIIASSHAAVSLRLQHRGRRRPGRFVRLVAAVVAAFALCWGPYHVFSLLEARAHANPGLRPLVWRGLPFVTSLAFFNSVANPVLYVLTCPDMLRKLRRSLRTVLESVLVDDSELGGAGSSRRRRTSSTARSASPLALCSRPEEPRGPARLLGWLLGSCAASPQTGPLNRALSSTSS
Assay: Radioligand binding assay ([3H]PGD2 competition, HEK-hCRTH2 membranes)
Settings: [3H]PGD2 competition, Table B
Method in brief: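 Competition binding with 3.0 nM [3H]PGD2 and 8-20 μg HEK-hCRTH2 membrane protein in 50 mM Tris-HCl pH 7.4, 1 mM EDTA, 2 mM MnCl2, 1% Me2SO, 60 min at room temperature. Nonspecific binding defined with 10 μM PGD2; bound radioactivity counted after filtration.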

Row | Compound | Ki [nM]
1 | CC1(C)CC[C@@H](NC(=O)c2ccc3nc(-c4ccccc4)c(CCCCC(=O)O)nc3c2)c2ccccc21 [compound 722, (R)-5-(7-((4,4-dimethyl-1,2,3,4-tetrahydronaphthalen-1-yl)carbamoyl)-3-phenylquinoxalin-2-yl)pentanoic acid] | 2.1 to 20
2 | O=C(O)CCCc1nc2cc(C(=O)N[C@@H]3CCCc4cc(F)ccc43)ccc2nc1-c1ccccc1 [compound 723, (R)-4-(7-((6-fluoro-1,2,3,4-tetrahydronaphthalen-1-yl)carbamoyl)-3-phenylquinoxalin-2-yl)butanoic acid] | 20.1 to 200
3 | O=C(O)CCCc1nc2cc(C(=O)N[C@@H]3CCCc4ccccc43)ccc2nc1-c1ccccc1 [compound 724, (R)-4-(3-phenyl-7-((1,2,3,4-tetrahydronaphthalen-l-yl)carbamoyl)quinoxalin-2-yl)butanoic acid] | 201 to 700
4 | O=C(O)CCCc1nc2cc(C(=O)N[C@@H]3CCOc4cc(F)ccc43)ccc2nc1-c1ccccc1 [compound 725, (R)-4-(7-((7-fluorochroman-4-yl)carbamoyl)-3-phenylquinoxalin-2-yl)butanoic acid] | 201 to 700
5 | C[C@@H](NC(=O)c1cc2nc(CCCCC(=O)O)c(-c3ccccc3)nc2cc1F)c1ccc(F)cc1 [compound 727, (R)-5-(6-fluoro-7-((1-(4-fluorophenyl)ethyl)carbamoyl)-3-phenylquinoxalin-2-yl)pentanoic acid] | 2.1 to 20
6 | O=C(O)CCCCc1nc2cc(C(=O)N[C@@H]3CCOc4ccccc43)c(F)cc2nc1-c1ccccc1 [compound 728, (R)-5-(7-(chroman-4-ylcarbamoyl)-6-fluoro-3-phenylquinoxalin-2-yl)pentanoic acid] | 2.1 to 20
